Experimental findings from PubChem BioAssay (NCI) are described below.

Some test systems named below: MDA-N; MALME-3M melanoma; M14 melanoma; IGROV1 ovarian; SK-MEL-28 melanoma; EKVX NSCLC; HOP-92 NSCLC; SF-539 CNS; UACC-62 melanoma; SNB-75 CNS.
Holding throughout (assay): inhibition of tumour cell growth, NCI panel, 48 h

SMILES strings stand for the structures.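 1) Cells in 96-well plates. 2) Compound, 48 h, 5 concentrations. 3) Linear interpolation between surrounding doses. 4) Unreached endpoint = highest concentration. TGI denotes the concentration required for complete inhibition of growth.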

In the case of `CC(C)c1ccc(/C=C2\CSCC3=C2NC(=S)NC3c2ccc(C(C)C)cc2)cc1` (stereo not drawn), the TGI in the assay on MDA-N, in the assay with MALME-3M melanoma, in the assay with M14 melanoma, in the assay with IGROV1 ovarian, in the assay on SK-MEL-28 melanoma and in the assay on EKVX NSCLC was more than 100 µM throughout. Further, the TGI with HOP-92 NSCLC, in the assay on SF-539 CNS and in the assay with UACC-62 melanoma was more than 100 µM throughout.

As for `O=S1(=O)c2ccccc2C(=NO)c2ccccc21`, the TGI in the assay on MDA-N, in the assay with M14 melanoma, with IGROV1 ovarian, in the assay with SNB-75 CNS, with SK-MEL-28 melanoma and in the assay with EKVX NSCLC was more than 100 µM in each case. The TGI with HOP-92 NSCLC, in the assay with SF-539 CNS and in the assay with UACC-62 melanoma was more than 100 µM throughout.

Regarding `Fc1ccc(N=NN2CCCC2)cc1`, the TGI in the assay on MDA-N, with MALME-3M melanoma, in the assay with M14 melanoma, in the assay on IGROV1 ovarian, in the assay with SK-MEL-28 melanoma and in the assay with EKVX NSCLC was more than 100 µM throughout. The TGI with HOP-92 NSCLC, in the assay on SF-539 CNS and with UACC-62 melanoma was more than 100 µM throughout.

As for `O=c1c2cc(I)ccc2nc(Sc2ncccc2[N+](=O)[O-])n1Cc1ccccc1`, the TGI was more than 100 µM in the assay on MDA-N; more than 100 µM with M14 melanoma; more than 100 µM in the assay with IGROV1 ovarian; more than 100 µM in the assay with SNB-75 CNS; more than 100 µM in the assay with SK-MEL-28 melanoma; 71.2 µM with EKVX NSCLC. For the same molecule, the TGI in the assay with HOP-92 NSCLC was 77.6 µM; in the assay with SF-539 CNS, more than 100 µM; with UACC-62 melanoma, more than 100 µM.

Regarding `CC[C@H](C)[C@H]1NC(=O)[C@@H](NC(=O)[C@@H](CC(C)C)N(C)CC2CCCN2C(=O)C(C)=O)[C@@H](C)OC(=O)[C@H](Cc2ccc(OC)cc2)N(C)C(=O)C2CCCN2C(=O)[C@H](CC(C)C)NC(=O)[C@@H](C)C(=O)[C@H](C(C)C)OC(=O)C[C@@H]1O` (stereo partly drawn), the TGI stood at 0.02 µM in the assay with MDA-N; 0.0474 µM with MALME-3M melanoma; 0.00972 µM in the assay with M14 melanoma; 0.016 µM in the assay with IGROV1 ovarian; 0.0108 µM in the assay with SNB-75 CNS; 0.0303 µM in the assay on SK-MEL-28 melanoma. Also, the TGI in the assay on EKVX NSCLC came out at 0.0509 µM; in the assay on HOP-92 NSCLC, 0.0292 µM; with UACC-62 melanoma, 0.0182 µM.

Turning to `O=C(c1ccccc1)c1ccc2nc(-c3c(Cl)c(Cl)c(Cl)c(Cl)c3C(=O)N/N=C/c3ccccc3)[nH]c2c1`, the TGI in the assay with MDA-N is 93.7 µM; in the assay with MALME-3M melanoma it was 83 µM; with M14 melanoma, more than 100 µM; in the assay on IGROV1 ovarian it was more than 100 µM; in the assay with SNB-75 CNS, 92.6 µM; in the assay with SK-MEL-28 melanoma it was more than 100 µM. Also, the figures for the TGI in the assay with EKVX NSCLC, in the assay on HOP-92 NSCLC and in the assay on SF-539 CNS were 60.2 µM, more than 100 µM and more than 100 µM, respectively.

As to `COc1ccc(N=N/C(=N/NC(=O)c2ccccc2)c2ccc(N(CCC#N)CCC#N)cc2C)cc1`, the TGI in the assay on MDA-N is 44.4 µM; in the assay with MALME-3M melanoma it was more than 100 µM; with M14 melanoma, more than 100 µM; in the assay on IGROV1 ovarian it was more than 100 µM; with SNB-75 CNS, more than 100 µM; in the assay on EKVX NSCLC, more than 100 µM. Besides, the TGI in the assay with SF-539 CNS was 70 µM; in the assay with UACC-62 melanoma it was more than 100 µM.

For the molecule `[N-]=[N+]=CC(=O)OCC1SCCCS1`, the TGI in the assay on MDA-N, with MALME-3M melanoma, in the assay with IGROV1 ovarian, in the assay with SK-MEL-28 melanoma, in the assay on EKVX NSCLC and with HOP-92 NSCLC was more than 100 µM in each case. Besides, the TGI in the assay on UACC-62 melanoma is more than 100 µM.

On to `O=C(CCCCCCCCC(=O)N1C(=O)CC(=O)N(c2cccc(Cl)c2)C1=S)N1C(=O)CC(=O)N(c2cccc(Cl)c2)C1=S`, for which the TGI is more than 100 µM with MDA-N; more than 100 µM in the assay on MALME-3M melanoma; more than 100 µM with M14 melanoma; more than 100 µM with SNB-75 CNS; more than 100 µM with EKVX NSCLC; 51.1 µM in the assay on HOP-92 NSCLC. This molecule also gave a TGI in the assay with UACC-62 melanoma of 84.3 µM.

Take `CN(C)Cc1cc(O)c(O)c(CN(C)C)c1`: the TGI is more than 100 µM with MDA-N; more than 100 µM in the assay on MALME-3M melanoma; 59.3 µM with M14 melanoma; more than 100 µM in the assay on IGROV1 ovarian; more than 100 µM in the assay on SNB-75 CNS; more than 100 µM in the assay on SK-MEL-28 melanoma. The TGI in the assay with EKVX NSCLC is 71.5 µM; with HOP-92 NSCLC, more than 100 µM; in the assay on UACC-62 melanoma, more than 100 µM.

Take `O=c1c(C=Nc2ccc([N+](=O)[O-])cc2)c(O)n(-c2ccccc2)c(=O)n1-c1ccccc1`: the TGI with MDA-N, with MALME-3M melanoma, in the assay with M14 melanoma, in the assay with IGROV1 ovarian, in the assay on SNB-75 CNS and in the assay on EKVX NSCLC was more than 100 µM each time. For the same molecule, the TGI in the assay with HOP-92 NSCLC and in the assay with UACC-62 melanoma was more than 100 µM throughout.

On to `O=C1COc2ccc([N+](=O)[O-])cc2C(=O)C1`, for which the TGI with MDA-N, with MALME-3M melanoma, in the assay with M14 melanoma, with IGROV1 ovarian, with SK-MEL-28 melanoma and in the assay on EKVX NSCLC was more than 10 µM throughout. Further, the TGI in the assay on HOP-92 NSCLC, with SF-539 CNS and in the assay on UACC-62 melanoma was more than 10 µM in each case.

`COc1ccc2c(c1)n([O-])c(C#N)c(N1CCN(c3ccc([N+](=O)[O-])cc3)CC1)[n+]2=O`: the TGI in the assay with MDA-N was more than 100 µM; with MALME-3M melanoma it was 19.1 µM; in the assay with M14 melanoma, more than 100 µM; in the assay with IGROV1 ovarian it was more than 100 µM; with SNB-75 CNS it was 66.2 µM; in the assay on SK-MEL-28 melanoma it was more than 69.7 µM. Moreover, the TGI is more than 100 µM with EKVX NSCLC, 6.23 µM with SF-539 CNS and more than 100 µM in the assay on UACC-62 melanoma.

For the molecule `CSc1c(C#N)c(=O)[nH]c2n[nH]c(C)c12`, the TGI with MDA-N, in the assay with MALME-3M melanoma, with M14 melanoma, in the assay with SNB-75 CNS, in the assay with SK-MEL-28 melanoma and in the assay on EKVX NSCLC was more than 100 µM in each case. The TGI with SF-539 CNS and in the assay on UACC-62 melanoma was more than 100 µM in each case.

Consider `C=C(CC[C@@H](C(=O)O)[C@H]1[C@H](O)C[C@@]2(C)C3=CC[C@@H](C(=C)C)[C@](C)(CCC(=O)O)C3=CC[C@]12C)C(C)C`, for which the TGI in the assay on MDA-N came to 32 µM; with MALME-3M melanoma it was 40.8 µM; with M14 melanoma it was 32.7 µM; in the assay on SNB-75 CNS, 36.5 µM; with SK-MEL-28 melanoma, 40 µM; in the assay with EKVX NSCLC, 32.3 µM. The TGI in the assay with HOP-92 NSCLC stood at 33.7 µM; with SF-539 CNS it was 37.7 µM; in the assay with UACC-62 melanoma, 29.1 µM.
